Read-outs that look alike come from different tables or passages of the source.

The text below walks through data of patent US6767533B1, “Use of a substance binding with the peripheral benzodiazepin receptor for treating skin stress” (Sanofi-Synthelabo, priority 1998, dated 2004).

In assay [1] the target is T1, peripheral benzodiazepine receptor (PBR) (Homo sapiens, UniProt P30536).
T1 construct: the peripheral receptor borne by the keratinocytes; host or cells: A-431 human epidermoid carcinoma keratinocyte line
T1 sequence (P30536 whole entry): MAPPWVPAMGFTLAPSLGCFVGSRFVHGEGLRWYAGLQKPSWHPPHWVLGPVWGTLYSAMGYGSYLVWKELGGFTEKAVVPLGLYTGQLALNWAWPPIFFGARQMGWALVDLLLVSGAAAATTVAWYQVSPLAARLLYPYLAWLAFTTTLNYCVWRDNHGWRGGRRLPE
The experiment in a line: Binding studies on keratinocyte line A-431 by displacement of [3H]-PK11195.

For a further assay, the system named is human keratinocytes. The experiment in a line: Protection of keratinocytes against UVB-induced cell impairment (apoptosis ELISA). Type of assay: cell-based. To be noted: UVB 250 J/m^2 for 16 hours, ligand concentration range between 10 nM and 10 μm. The method, then: The anti-apoptotic activity of the active agents was measured on human keratinocytes and on fibroblasts (ATCC) which were inoculated in 35 mm Petri dishes (5×10^5 cells/well) in DMEM (Dubelco's Mode Eagle Medium) supplemented with 10% fetal calf serum and left to proliferate to the point of confluence. This culture medium is then drawn off, the cells are rinsed and 0.1% fetal calf serum is added in the presence of a saline solution. Increasing concentrations of the substance to be studied are added. Twenty four hours later, the apoptosis is measured with an ELISA (enzyme-linked immunosorbent assay) assay kit.
Keratinocytes were subjected to ultraviolet radiation of type B (UVB) at a dose of 250 J/m^2 for 16 hours (J. Invest. Dermatol. 1995, 104: 922-927). In the presence of the PBR ligand Ro 5-4864, it was shown that the cell impairment processes induced by the irradiation are prevented in a ligand concentration range of between 10 nM and 10 μm.

Regarding `CN1C(=O)CN=C(c2ccc(Cl)cc2)c2cc(Cl)ccc21` [Ro 5-4864, chlorodiazepam], the IC50 in assay [1] (A-431 keratinocyte line, read-out: IC50, displacement of the reference peripheral ligand PK 11195) was around 0.025 µM. In the assay with human keratinocytes, the “cell impairment processes induced by UVB irradiation” value was “prevented”. `O=C1CN=C(c2ccccc2Cl)c2cc([N+](=O)[O-])ccc2N1` [clonazepam]: the “displacement of the reference peripheral ligand PK 11195” value in assay [1] (A-431 keratinocyte line, at 3 200 nM) was “inactive”. Turning to `CN1C(=O)CN=C(c2ccccc2)c2cc(Cl)ccc21` [diazepam], the IC50 in assay [1] is around 0.1 µM.
